Source: ChEMBL document CHEMBL1155024, “Microbial transformation of cinobufagin by Syncephalastrum racemosum” (J Nat Prod, 2008)

system: Bel-7402; assay: Cytotoxicity against human Bel7402 cells by MTT assay; format: functional, cell-based

SMILES | IC50 [nM]
CC(=O)O[C@H]1[C@H]2O[C@]23[C@@H]2[C@@H](O)C[C@@H]4C[C@@H](O)CC[C@]4(C)[C@H]2CC[C@]3(C)[C@H]1c1ccc(=O)oc1 | 540
CC(=O)O[C@H]1[C@H]2O[C@]23[C@@H]2CC[C@]4(O)C[C@@H](O)CC[C@]4(C)[C@H]2C[C@@H](O)[C@]3(C)[C@H]1c1ccc(=O)oc1 | 660
CC(=O)O[C@H]1[C@H]2O[C@]23[C@@H]2CC[C@@H]4C[C@@H](O)CC[C@]4(C)[C@H]2C[C@@H](O)[C@]3(C)[C@H]1c1ccc(=O)oc1 | 370
CC(=O)O[C@H]1[C@H]2O[C@]23[C@@H]2CC[C@@H]4C[C@@H](O)CC[C@]4(C)[C@H]2CC[C@]3(C)[C@H]1c1ccc(=O)oc1 [CINOBUFAGIN] | 100
CC(=O)O[C@H]1[C@H]2O[C@]23[C@@H]2CC[C@]4(O)C[C@@H](O)CC[C@]4(C)[C@H]2CC[C@]3(C)[C@H]1c1ccc(=O)oc1 [CINOBUFOTALIN] | 1210
